The text below walks through data of PubChem BioAssay (NCI).

Structures are written as SMILES.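 Results reflect a 48-hour exposure of cells in 96-well plates to compound at five concentrations. GI50 marks 50% less growth. TGI: concentration producing complete growth inhibition.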 Where a SMILES comes first, the peptide text is derived from it. [ ]: non-standard residue; d: D form. The star is where a group is joined. ξ: configuration not given here. Propanoyl(3-(4-MeO-Ph)) = COc1ccc(CCC(=O)*)cc1; Thr(3ξ) = CC(O)[C@H](N)C(=O)O; dNMeL = CN[C@H](CC(C)C)C(=O)O; ξLac = CC(O)C(=O)O Bounds are passed on as bounds.

Holding throughout (assay): growth of human tumour cells (NCI), 48 h
Test [1] relates to UACC-62 melanoma.
Test [2] has as its system OVCAR-4 ovarian.
In test [3] the test system is COLO 205 colon.
Test [4] has as its system NCI-H226 lung.
Test [5] relates to HOP-92 NSCLC.
The test system of test [6] is HS 578T breast.
Test [7] has as its system HCC-2998 colon.
In test [8] the test system is SF-295 CNS.
Test [9] concerns K-562 leukemia.
For test [10], the system named is LOX IMVI melanoma.

As to `COP(=O)(OC)c1ccc(NCc2cc(O)ccc2O)cc1`, the TGI in test [1] is 43.9 µM; in test [2], above 59 µM; in test [3], above 64.6 µM; in test [4] it was above 77.9 µM; in test [5] it was 45.5 µM; in test [6] it was above 63.8 µM. Also, the TGI in test [7] was 51.6 µM; in [8], 35.2 µM; in [9], above 96.8 µM; in test [10], above 75.4 µM.
Regarding `CSC1(SC)N2Cc3ccccc3N=C2C1(c1ccccc1)c1ccccc1`, the TGI is above 55.3 µM in test [1]; above 100 µM in test [2]; 15.6 µM in test [3]; above 100 µM in test [4]; above 27.3 µM in test [5]; above 82.5 µM in test [6]. Further, the TGI in test [7] was 23.2 µM; in test [8], above 100 µM; in test [9], above 100 µM; in test [10] it was 44.4 µM.
Consider `COc1ccc(/C=N\NC(=O)Nc2cccc3ccccc23)cc1`, for which the TGI in test [2] was 43.2 µM; in test [3], above 100 µM; in test [4] it was 83.7 µM; in test [5], 42.1 µM; in test [6] it was 61.2 µM; in test [7], above 100 µM. This compound also returned a TGI in test [10] above 100 µM.
`CCCCC1(N=[N+]=[N-])C(=O)C2C=CC=C3c4ccccc4N(C1=O)C32` (configuration not stated): the TGI is above 31.6 µM in test [1]; above 31.6 µM in [2]; above 31.6 µM in test [3]; above 31.6 µM in test [4]; above 10 µM in [5]; 26 µM in test [6]. Also, the TGI in [7], in test [8], in test [9] and in test [10] was above 31.6 µM throughout.
Regarding `NC(=O)c1ncn2c(=O)n(CCl)nnc12`, the TGI in [1], in test [2], in [3], in test [4], in test [5] and in test [6] was above 100 µM each time. Further, the TGI in [7], in test [8], in test [9] and in test [10] was above 100 µM throughout.
Regarding `Cc1[nH]c(=O)nc2nc3ccc(Cl)cc3c(NC(C)(CO)CO)c12`, the TGI in test [1], in test [2], in test [3], in test [4], in test [5] and in test [6] was above 100 µM each time. For the same compound, the TGI in test [7], in [8], in test [9] and in test [10] was above 100 µM throughout.
For `NNC(=O)CCC(NS(=O)(=O)c1ccc(Cl)cc1)C(=O)NN` (configuration not stated), the TGI in test [1], in [2], in test [3], in [4], in test [5] and in test [6] was above 100 µM in each case. Also, the TGI in test [7], in test [8], in [9] and in [10] was above 100 µM in each case.
Regarding `COc1ccc(-c2nnc(CCCCCCCCc3nnc(-c4ccc(OC)cc4)n3N)n2N)cc1`, the TGI in test [1] is above 100 µM; in [2] it was above 100 µM; in test [3], above 100 µM; in [4], above 100 µM; in test [5] it was above 69.1 µM; in test [6], above 100 µM. The TGI in test [7], in [8], in test [9] and in [10] was above 100 µM throughout.
As to `CCOC(=O)C1C[C@H]2CO[C@H](c3ccccc3)N2C1=O` (some centres not stated), the TGI in test [1], in test [2], in test [3], in test [4], in [5] and in test [6] was above 100 µM throughout. Besides, the TGI in test [7], in test [8], in test [9] and in [10] was above 100 µM throughout.
Take `CC(C)(C)OC(=O)N1Cc2cc(O)ccc2C[C@H]1C(=O)O`: the TGI in [1], in [2], in test [3], in test [4], in test [5] and in test [6] was above 100 µM throughout. For the same compound, the TGI in [7], in test [8], in [9] and in test [10] was above 100 µM in each case.
In the case of `COc1cc(O)c2c(=O)c(OC)c(-c3ccc4c(c3)OCO4)oc2c1OC`, the TGI was above 50 µM in test [1]; above 50 µM in [2]; above 50 µM in [3]; above 50 µM in test [4]; 44.2 µM in test [5]; above 50 µM in [6]. Further, the TGI in test [7], in [8], in [9] and in [10] was above 50 µM in each case.
With `CC(=O)NC(C)c1ccc(N=NN2CCCC2)cc1` (configuration not stated), the TGI in test [2], in test [3], in test [4], in test [5], in test [6] and in test [7] was above 100 µM in each case. Also, the TGI in test [8] and in [10] was above 100 µM each time.
On to `NC(=O)C[C@H](NC(=O)C1(NC(=O)[C@H](Cc2ccc(CP(=O)(O)O)cc2)NC(=O)C(=O)O)CCCCC1)C(=O)NCCCc1cccc2ccccc12`, for which the TGI in test [1], in test [2], in [3], in test [4], in test [5] and in [6] was above 10 µM each time. The TGI in [7], in test [8], in test [9] and in [10] was above 10 µM throughout.
Regarding `Cn1c(N=[N+]=[N-])cc(=O)n(C)c1=O`, the TGI in test [1], in test [2], in test [3], in [4], in [5] and in [6] was above 100 µM throughout. The TGI in test [7], in [8], in test [9] and in test [10] was above 100 µM each time.
In the case of `Cc1oncc1NC1=CC(=O)C(=O)c2ccccc21`, the TGI in [1] was determined as 8.4 µM; in test [2], 12.9 µM; in [3] it was 37.1 µM; in test [4], 39.4 µM; in test [5], 24 µM; in test [6], 71.5 µM. Besides, the TGI in [7] turned out to be 33.4 µM; in [8] it was 20.6 µM; in test [9] it was 27 µM; in test [10], 10.5 µM.
On to `COc1ccc2oc(=Nc3ccc(F)cc3)c(C(N)=O)cc2c1`, for which the TGI was above 100 µM in test [1]; above 100 µM in test [2]; above 100 µM in test [3]; above 100 µM in test [4]; 95.5 µM in test [5]; above 100 µM in [6]. Further, the TGI in [7], in [8], in [9] and in test [10] was above 100 µM in each case.
For `CN(C)CCNC(=O)c1cccc2[nH]c(-c3ccncc3)nc12`, the TGI in [1] was 10.8 µM; in test [2] it was above 100 µM; in test [3], 3.26 µM; in test [4], above 50.5 µM; in [5], 20.7 µM; in [6] it was 29.6 µM. For the same compound, the TGI in [7] was 4.34 µM; in test [8], 7.97 µM; in [9] it was above 100 µM; in test [10], 1.81 µM.
Regarding `COc1ccc(N2C(N)=C(C#N)C(C#N)(C#N)C2c2cccc([N+](=O)[O-])c2)cc1` (configuration not stated), the TGI in test [1] turned out to be 30.1 µM; in test [2], 32 µM; in test [3] it was 24 µM; in test [4], 35.4 µM; in [5] it was 26.2 µM; in [6] it was 54.6 µM. Moreover, the TGI is 31.8 µM in test [7], 39.5 µM in test [8], 14.7 µM in test [9] and 27.6 µM in test [10].
In the case of `COc1cccc2c1-c1c(OC)cccc1SS2`, the TGI in test [1] was 92.5 µM; in test [2], 90.5 µM; in [3], 56.6 µM; in [4], 42.7 µM; in test [5], 36 µM; in test [6], above 100 µM. In addition, the TGI in test [7] was 49.3 µM; in test [8], 43.6 µM; in [9], above 100 µM; in test [10], 23.5 µM.
As to `O=C(CCc1ccc(O)c(O)c1)NCCc1ccc(O)c(O)c1`, the TGI was above 100 µM in [1]; 33.7 µM in test [2]; above 100 µM in test [3]; above 100 µM in test [4]; above 100 µM in test [5]; above 100 µM in test [6]. In addition, the TGI in [7], in test [8], in test [9] and in test [10] was above 100 µM in each case.
For the compound `CCOc1cc2c(cc1O)CC[C@@H]1[C@@H]2CC[C@]2(C)C(OS(=O)OC3CC[C@@H]4[C@H]5CCc6cc(O)c(OCC)cc6[C@@H]5CC[C@@]34C)CC[C@@H]12` (some centres not stated), the TGI in [1] is 30.9 µM; in test [2], above 64.5 µM; in test [3] it was above 53.7 µM; in [4], 14.6 µM; in test [5], above 100 µM; in test [6] it was above 57.3 µM. Also, the TGI in test [7] was 31.9 µM; in test [8], 22.5 µM; in [9], above 55.6 µM; in test [10] it was above 51.7 µM.
In the case of `C=CC[C@@H]1C=C[C@@H](C(=O)OC)n2c(=O)n(-c3ccccc3)c(=O)n21`, the TGI in test [1], in [2], in test [3], in test [4], in [5] and in test [6] was above 100 µM each time. For the same compound, the TGI in test [7], in [8], in test [9] and in test [10] was above 100 µM each time.
`COC(=O)C(Cc1ccccc1)NC(=O)c1ccc(CNC(=S)NCc2cccc(CNC(=S)NCc3ccccc3)c2)cc1` (configuration not stated): the TGI in test [1], in [2], in test [3], in test [4], in test [5] and in test [6] was above 62.5 µM throughout. Moreover, the TGI in test [7], in test [8], in test [9] and in test [10] was above 62.5 µM each time.
Turning to `COc1ccc(NCc2cnc3nc(N)nc(N)c3c2C)cc1`, the TGI in [1] is above 100 µM; in [2], above 100 µM; in [3] it was above 100 µM; in test [4], above 93.9 µM; in test [5], above 89.5 µM; in test [6], above 100 µM. Further, the TGI is above 31.6 µM in test [7], above 100 µM in test [9] and above 100 µM in test [10].
As for `O=[N+]([O-])c1ccc2nc(/C=C(\O)c3ccccc3)c(/C=C(\O)c3ccccc3)nc2c1`, the TGI in test [1] is 18.8 µM; in [2] it was 32.5 µM; in [3], above 100 µM; in [4], above 100 µM; in [5] it was 5.63 µM; in test [6], 48.6 µM. Further, the TGI in [7] is above 100 µM; in [8] it was 48.3 µM; in test [9] it was above 100 µM; in test [10], 21.3 µM. Further, the GI50 was 195 nM in test [5], 6.83 µM in [6] and 7.18 µM in [10].
Regarding `CCNc1cc2c3c(c1)CCCN3CCC2`, the TGI in [1] is 41 µM; in test [2] it was 32.3 µM; in [3], 24.5 µM; in test [4], 41.9 µM; in test [5] it was 44.4 µM; in [6] it was 78.5 µM. Besides, the TGI in test [7] came out at 70.8 µM; in test [8] it was 32.3 µM; in [9] it was 28.3 µM; in test [10], 13.5 µM.
For `COC(=O)[C@@H](NC(=O)[C@@H](CC(C)C)N(C)C(=O)[C@@H]1CCCN1C(=O)C(C)O)C(C)OC(=O)CCc1ccc(OC)cc1` (some centres not stated) (H-[ξLac]P[dNMeL][Thr(3ξ)](Propanoyl(3-(4-MeO-Ph)))-OMe), the TGI in test [1], in test [2], in [3], in test [4], in test [5] and in [6] was above 100 µM throughout. Besides, the TGI in [7], in test [8], in test [9] and in [10] was above 100 µM in each case.
